Target: human VPS34 (Homo sapiens (Human), UniProt Q8NEB9)
Test: Human VPS34 enzyme assay (Adapta TR-FRET ADP detection)
Assay type: biochemical
Parameters: Percent Inhibition: dose or concentration left out as unconfirmed
Settings: for IC50: IC50 range class

Chain of human VPS34 (Q8NEB9 whole entry): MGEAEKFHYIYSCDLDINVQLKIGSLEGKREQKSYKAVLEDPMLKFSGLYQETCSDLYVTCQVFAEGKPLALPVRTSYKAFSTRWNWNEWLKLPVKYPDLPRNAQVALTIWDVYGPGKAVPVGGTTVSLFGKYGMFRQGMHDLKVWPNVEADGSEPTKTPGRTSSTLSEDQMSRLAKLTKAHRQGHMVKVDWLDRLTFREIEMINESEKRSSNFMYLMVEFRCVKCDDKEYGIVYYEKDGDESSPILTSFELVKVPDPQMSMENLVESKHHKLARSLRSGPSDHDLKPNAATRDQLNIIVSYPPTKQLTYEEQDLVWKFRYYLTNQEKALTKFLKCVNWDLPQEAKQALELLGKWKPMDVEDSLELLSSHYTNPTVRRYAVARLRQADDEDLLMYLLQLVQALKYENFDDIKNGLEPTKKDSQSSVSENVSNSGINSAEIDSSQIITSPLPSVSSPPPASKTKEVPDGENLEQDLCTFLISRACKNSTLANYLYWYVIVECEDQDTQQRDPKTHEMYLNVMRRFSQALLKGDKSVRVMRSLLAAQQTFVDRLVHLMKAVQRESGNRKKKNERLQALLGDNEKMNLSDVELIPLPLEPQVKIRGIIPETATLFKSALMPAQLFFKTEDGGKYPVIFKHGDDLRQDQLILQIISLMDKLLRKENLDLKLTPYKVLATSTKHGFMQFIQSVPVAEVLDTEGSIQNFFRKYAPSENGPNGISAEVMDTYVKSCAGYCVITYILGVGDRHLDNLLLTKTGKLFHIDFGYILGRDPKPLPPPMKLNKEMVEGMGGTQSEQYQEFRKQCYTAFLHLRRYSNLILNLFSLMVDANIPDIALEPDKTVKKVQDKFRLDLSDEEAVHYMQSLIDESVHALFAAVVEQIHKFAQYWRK

Compound | IC50 | Percent Inhibition
Cc1ncc(-c2ccnc(NC(=O)C3CC3)c2)cc1C(=O)N(C)C12CC(C1)C2 [Compound I-388, N-(bicyclo[1.1.1]pent-1-yl)-2′-[(cyclopropylcarbonyl)amino]-N,6-dimethyl-3,4′-bipyridine-5-carboxamide] | 50 to 100 nM | –
COc1ncc(-c2ccnc(NC(C)=O)c2)c(C)c1NS(=O)(=O)c1ccc(F)cc1F [Compound I-248, N-(5-{[(2,4-difluorophenyl)sulfonyl]amino}-6-methoxy-4-methyl-3,4′-bipyridin-2′-yl)acetamide] | 10 to 50 nM | –
Cc1nccc(Nc2cc(-c3cnc(C)c(C(=O)N(C)C45CC(C4)C5)c3)ccn2)n1 [Compound I-275, N-(bicyclo[1.1.1]pent-1-yl)-N,6-dimethyl-2′-[(2-methylpyrimidin-4-yl)amino]-3,4′-bipyridine-5-carboxamide] | 10 to 50 nM | –
CC(=O)Nc1cc(-c2cncc(S(=O)(=O)N3CCN(C)CC3)c2)ccn1 [Compound I-481] | 10 to 50 nM | –
CC(=O)Nc1cc(-c2cc(S(C)(=O)=O)c[n+]([O-])c2)ccn1 [Compound I-191, N-{4-[5-(methylsulfonyl)-1-oxidopyridin-3-yl]pyridin-2-yl}acetamide] | > 100 nM | –
Cc1ncc(-c2ccnc(NC(=O)C3CC3(F)F)c2)cc1NS(=O)(=O)N(C)C (single isomer, unassigned) [Compound I-499] | 10 to 50 nM | >99%
CC(=O)Nc1cc(-c2cncc(S(=O)(=O)NC(C)(C)C)c2)ccn1 [Compound I-443, N-[5-(tert-butylsulfamoyl)-3,4′-bipyridin-2′-yl]acetamide] | 10 to 50 nM | –
COc1nc(C)nc(Nc2cc(-c3cnc(C)c(NS(=O)(=O)c4ccc(F)cc4F)c3)ccn2)n1 [Compound I-375, 2,4-difluoro-N-{2′-[(4-methoxy-6-methyl-1,3,5-triazin-2-yl)amino]-6-methyl-3,4′-bipyridin-5-yl}benzenesulfonamide] | < 10 nM | –
Cc1nccc(Nc2cc(-c3cnc(C)c(NC(=O)N4CC(F)(F)C4)c3)ccn2)n1 [Compound I-482, 3,3-difluoro-N-{6-methyl-2′-[(2-methylpyrimidin-4-yl)amino]-3,4′-bipyridin-5-yl}azetidine-1-carboxamide] | 50 to 100 nM | –
CNc1c(Cl)ncc(-c2ccnc(Nc3ccnc(C)n3)c2)c1C [Compound I-256, 6-chloro-N-5-4-dimethyl-N-2-(2-methylpyrimidin-4-yl)-3,4′-bipyridine-2′,5-diamine] | 10 to 50 nM | –
COc1ncc(-c2ccnc(Nc3ccnc(C)n3)c2)cc1C(=O)N(C)c1ccc(F)cc1F [Compound I-252, N-(2,4-difluorophenyl)-6-methoxy-N-methyl-2′-[(2-methylpyrimidin-4-yl)amino]-3,4′-bipyridine-5-carboxamide] | 10 to 50 nM | –
CC(=O)Nc1cc(-c2cnc(Cl)c(NS(=O)(=O)c3cc(Cl)ccc3Cl)c2C)ccn1 [Compound I-401, N-(6-chloro-5-{[(2,5-dichlorophenyl)sulfonyl]amino}-4-methyl-3,4′-bipyridin-2′-yl)acetamide] | < 10 nM | –

The remaining lines, values ahead:

IC50 | Percent Inhibition | Compound
> 100 nM | – | CC(=O)Nc1cc(-c2cnc3c(c2)S(=O)(=O)N[C@H](c2ccccc2)CO3)ccn1 [Compound I-420, (R)-N-(4-(1,1-dioxido-3-phenyl-3,4-dihydro-2H-pyrido[2,3-b][1,4,5]oxathiazepin-8-yl)pyridin-2-yl)acetamide]
> 100 nM | – | CC(=O)Nc1cc(-c2cnc(Cl)c(S(=O)(=O)NC(CO)c3ccccc3)c2)ccn1 (stereo in doubt) [Compound I-403, N-(6-chloro-5-{[(1R)-2-hydroxy-1-phenylethyl]sulfamoyl}-3,4′-bipyridin-2′-yl)acetamide]
10 to 50 nM | – | CC(=O)Nc1cc(-c2cnc(C)c(NS(=O)(=O)c3cccc(F)c3Cl)c2)ccn1 [Compound I-322, N-(5-{[(2-chloro-3-fluorophenyl)sulfonyl]amino}-6-methyl-3,4′-bipyridin-2′-yl)acetamide]
10 to 50 nM | – | CC(=O)Nc1cc(-c2cnc(C)c(OS(=O)(=O)c3ccc(F)cc3F)c2)ccn1 [Compound I-478, 2′-acetamido-6-methyl-3,4′-bipyridin-5-yl 2,4-difluorobenzenesulfonate]
< 10 nM | – | CC(=O)Nc1cc(-c2cc(OS(=O)(=O)N(C)C)c3ccnn3c2)ccn1 [Compound I-428, 6-(2-acetamidopyridin-4-yl)pyrazolo[1,5-a]pyridin-4-yl dimethylsulfamate]
> 100 nM | – | CC(=O)Nc1cc(-c2cnc(C)c(C(=O)Nc3ccc(F)cc3F)c2)ccn1 [Compound I-431, 2′-acetamido-N-(2,4-difluorophenyl)-6-methyl-3,4′-bipyridine-5-carboxamide]
< 10 nM | – | CC(=O)Nc1cc(-c2cnc(N)c(S(=O)(=O)N(C)C)c2)ccn1 [Compound I-119, N-[6-amino-5-(dimethylsulfamoyl)-3,4′-bipyridin-2′-yl]acetamide]
10 to 50 nM | – | CC(=O)Nc1cc(-c2cncc(S(=O)(=O)N(C)C)c2)ccn1 [Compound I-137, N-[5-(dimethylsulfamoyl)-3,4′-bipyridin-2′-yl]acetamide]
10 to 50 nM | – | CC(=O)Nc1cc(-c2cnc3ccn(CC4CC4)c3c2)ccn1 [Compound I-93, N-{4-[1-(cyclopropylmethyl)-1H-pyrrolo[3,2-b]pyridin-6-yl]pyridin-2-yl}acetamide]
50 to 100 nM | – | CC(=O)Nc1cc(-c2cnc(C)c(NC(C)=O)c2)ccn1 [Compound I-193, N,N′-(6-methyl-3,4′-bipyridine-2′,5-diyl)diacetamide]
10 to 50 nM | – | CC(=O)Nc1cc(-c2cc(NS(=O)(=O)N(C)C)c3ccnn3c2)ccn1 [Compound I-476, N-(4-{4-[(dimethylsulfamoyl)amino]pyrazolo[1.5-a]pyridin-6-yl}pyridin-2-yl)acetamide]
10 to 50 nM | – | Cc1ncc(-c2ccnc(NC(=O)C3CC3)c2)cc1NS(=O)(=O)c1ccc(Cl)cc1F [Compound I-433, N-(5-{[(4-chloro-2-fluorophenyl)sulfonyl]amino}-6-methyl-3,4′-bipyridin-2′-yl)cyclopropanecarboxamide]
10 to 50 nM | – | CC(=O)Nc1cc(-c2cnc(C)c(NS(=O)(=O)N3CCCC3)c2)ccn1 [Compound I-274, N-{6-methyl-5-[(pyrrolidin-1-ylsulfonyl)amino]-3,4′-bipyridin-2′-yl}acetamide]
10 to 50 nM | – | CC(=O)Nc1cc(-c2cncc(S(=O)(=O)N3CC(F)(F)C3)c2)ccn1 [Compound I-391, N-{5-[(3,3-difluoroazetidin-1-yl)sulfonyl]-3,4′-bipyridin-2′-yl}acetamide]
10 to 50 nM | – | CC(=O)Nc1cc(-c2cnc3[nH]cc(S(=O)(=O)c4ccccc4)c3c2)ccn1 [Compound I-176, N-{4-[3-(phenylsulfonyl)-1H-pyrrolo[2,3-b]pyridin-5-yl]pyridin-2-yl}acetamide]
10 to 50 nM | – | CC(=O)Nc1cc(-c2cnc(Cl)c(S(=O)(=O)NC34CC(C3)C4)c2)ccn1 [Compound I-366, N-[5-(bicyclo[1.1.1]pent-1-ylsulfamoyl)-6-chloro-3,4′-bipyridin-2′-yl]acetamide]
10 to 50 nM | – | CC(=O)Nc1cc(-c2cnc(N)c(C(=O)N3CCN(C)CC3)c2)ccn1 [Compound I-79, N-[6-amino-5-[(4-methylpiperazin-1-yl)carbonyl]-3,4′-bipyridin-2′-yl}acetamide]
